Results as given in patent US20130005588A1, “METHOD FOR DETERMINING SUBSTANCE NON-TOXICITY” (priority 2010, published 2013).
Where two headings read alike, the source gives them in different places. Residues, ends and D or L forms follow the SMILES beside them.

Legend:
[1] = tested on: rat 3-D primary aggregating brain cell cultures; test: Gene expression (mRNA of nestin, NF-200, S100β, MBP) by quantitative real-time PCR in aggregating brain cell cultures exposed to potential DNT chemicals; type: cell-based
Experimental: (§1) Generally one batch of Rat primary aggregating brain cell cultures aggregates were prepared every month. […] The endpoints applied to study processes of neurodevelopment include quantitative real-time PCR, Western blot analysis and mass spectrometry based metabolomics.
Aggregate cultures were maintained for 35 days in vitro (DIV). Samples were taken at DIV 1, 7, 14, 21, 28, 35 and mRNA was isolated, purified and quantified by RT-PCR.
The expression of the following genes was quantified; nestin expressed in neural precurser cells, neurofilament-200 (NF-200) expressed in neurons, S100β expressed in astrocytes and myelin basic protein (MBP) expressed in oligodendrocytes.
Aggregating brain cell cultures were exposed to potential DNT chemicals during both early (day in vitro 7-14) and late developmental stages (day in vitro […]). Chemicals were dissolved in water or DMSO depending on their chemical properties. Control cells received the vehicle without the DNT chemical.

[2] = tested on: primary rat aggregating brain cell cultures; type: cell-based
Experimental: as §1
Cellular extracts (control and treated cultures) were prepared as described. The samples were used to establish an LC-MS method for the analysis of metabolites. […] Significant pertubations in metabolite levels were determined by principal component analysis and metabolites were identified by a Metlin metabolite database search using their retention time and accurate mass. Examples of metabolites that were perturbed by lead chloride and TCE treatment in the neuronal cell model and could be linked to biological pathways are provided in Table 3.

[3] = astrocytic marker, exposure DIV 7-14 or 7-21, real-time PCR
[4] = neural precursor marker, exposure DIV 7-14 or 7-21, real-time PCR
[5] = neuronal marker, exposure DIV 7-14 or 7-21, real-time PCR
[6] = oligodendrocyte marker, exposure DIV 7-14 or 7-21, real-time PCR
[7] = nestin, NF-200, S100β, MBP, exposure DIV 7-14 or 7-21

| Structure (SMILES) | The lowest concentration inducing changes in mRNA levels of S100β [1, 3] | The lowest concentration inducing changes in mRNA levels of nestin [1, 4] | The lowest concentration inducing changes in mRNA levels of NF-200 [1, 5] | The lowest concentration inducing changes in mRNA levels of MBP [1, 6] | significant effects on quantified gene expression levels (one or several cell type related genes) [1, 7] | alteration of metabolites in the aggregate samples ([2]; LC-MS, intra-cellular extracts, treatment 7 to 21 DIV, principal component analysis) | The lowest concentration inducing changes in mRNA levels of S100β ([1]; astrocytic marker, exposure DIV 7-14 or 7-21, real-time PCR, listed as maneb) | significant effects on quantified gene expression levels (one or several cell type related genes) [1] | The lowest concentration inducing changes in mRNA levels of NF-200 ([1]; rat) | The lowest concentration inducing changes in mRNA levels of S100β ([1]; rat) | The lowest concentration inducing changes in mRNA levels of nestin ([1]; rat) | alteration of metabolites in the aggregate samples [2] | The lowest concentration inducing changes in mRNA levels of MBP ([1]; rat) |
| --- | --- | --- | --- | --- | --- | --- | --- | --- | --- | --- | --- | --- | --- |
| CNC(=O)Oc1cccc2ccccc12 [Carbaryl] | —^1 | 0.1 µM | 0.1 µM | 0.1 µM | – | – | – | – | – | – | – | – | – |
| CC(C)(c1ccc(O)cc1)c1ccc(O)cc1 [Bisphenol A] | —^1 | —^1 | 100 µM | —^1 | significantly affected | – | – | – | – | – | – | – | – |
| CCOP(=S)(OCC)Oc1nc(Cl)c(Cl)cc1Cl [Chlorpyrifos] | 10 µM | 0.1 µM | 0.1 µM | 1 µM | significantly affected | – | – | – | – | – | – | – | – |
| COC(=O)[C@H](Cc1ccccc1)NC(=O)[C@@H](N)CC(=O)O [Aspartame] (HELM PEPTIDE1{D.F.[CO[*:1]]}$$$$V2.0) | —^1 | —^1 | —^1 | —^1 | did not induce any significant effects | – | – | – | – | – | – | – | – |
| [Cl][Pb][Cl] [Lead Chloride] | 10 µM | 10 µM | 0.1 µM | 0.1 µM | significantly affected | altered hundreds of metabolites | – | – | – | – | – | – | – |
| [Cl][Cd][Cl] [Cadmium Chloride] | 1 µM | 1 µM | 1 µM | 10 µM | significantly affected | – | – | – | – | – | – | – | – |
| S=C([S-])NCCNC(=S)[S-].[Mn+2] [Maneb] | —^1 | 1 µM | 0.1 µM | 0.1 µM | significantly affected | – | no observed effects | – | – | – | – | – | – |
| Nc1nnc(-c2cccc(Cl)c2Cl)c(N)n1 [Lamotrigine] | – | – | – | – | – | – | – | did not induce any significant effects | —^1 | —^1 | —^1 | – | – |
| ClC=C(Cl)Cl [Trichloroethylene] | – | – | – | – | – | – | – | significantly affected | 0.1 µM | —^1 | 50 µM | altered hundreds of metabolites | – |
| Cl[C@H]1[C@H](Cl)[C@@H](Cl)[C@@H](Cl)[C@H](Cl)[C@H]1Cl [Lindane] | —^1 | 0.1 µM | 0.1 µM | 1 µM | significantly affected | – | – | – | – | – | – | – | – |
| CCCC(CCC)C(=O)O [Valproic acid] | – | – | – | – | – | – | – | significantly affected | —^1 | 500 µM | —^1 | – | 100 µM |
